Read-outs that look alike come from different tables or passages of the source.

For series [1], the target named is T1, calcium-dependent protein kinase 1 (PfCDPK1, PF3D7_0217500) (Plasmodium falciparum, UniProt P62344).
T1 construct: gene CDPK1
Nature of the series: Kinobead competitive pulldown from asexual blood stage parasite lysate, mass spectrometry. In kind it is biochemical.

Series [2] deals with Aurora-related kinase 1 (PfArk1, PF3D7_0605300) (Plasmodium falciparum, UniProt C6KSQ1). Put plainly: KinaseSeeker competition binding assay with recombinant kinase; also Kinobead competition (Kd app […]) and conditional knockdown sensitization ([…]).
The target of series [3] is T2, cAMP-dependent protein kinase catalytic subunit (PfPKAc, PF3D7_0934800) (Plasmodium falciparum, UniProt Q7K6A0).
T2 construct: with PfPKAr (PF3D7_1223100)
T2 sequence (Q7K6A0 1-342): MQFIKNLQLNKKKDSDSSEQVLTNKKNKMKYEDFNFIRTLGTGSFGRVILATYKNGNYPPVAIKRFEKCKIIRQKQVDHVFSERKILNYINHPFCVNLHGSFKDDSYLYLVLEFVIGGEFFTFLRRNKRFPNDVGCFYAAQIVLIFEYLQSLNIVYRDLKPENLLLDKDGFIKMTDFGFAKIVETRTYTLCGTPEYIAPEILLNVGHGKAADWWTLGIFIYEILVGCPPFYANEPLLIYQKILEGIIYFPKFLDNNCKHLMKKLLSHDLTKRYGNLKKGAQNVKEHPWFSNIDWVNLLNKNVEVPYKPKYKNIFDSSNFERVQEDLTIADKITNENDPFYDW
T2 sequence (Q7KQK0 1-441 partner): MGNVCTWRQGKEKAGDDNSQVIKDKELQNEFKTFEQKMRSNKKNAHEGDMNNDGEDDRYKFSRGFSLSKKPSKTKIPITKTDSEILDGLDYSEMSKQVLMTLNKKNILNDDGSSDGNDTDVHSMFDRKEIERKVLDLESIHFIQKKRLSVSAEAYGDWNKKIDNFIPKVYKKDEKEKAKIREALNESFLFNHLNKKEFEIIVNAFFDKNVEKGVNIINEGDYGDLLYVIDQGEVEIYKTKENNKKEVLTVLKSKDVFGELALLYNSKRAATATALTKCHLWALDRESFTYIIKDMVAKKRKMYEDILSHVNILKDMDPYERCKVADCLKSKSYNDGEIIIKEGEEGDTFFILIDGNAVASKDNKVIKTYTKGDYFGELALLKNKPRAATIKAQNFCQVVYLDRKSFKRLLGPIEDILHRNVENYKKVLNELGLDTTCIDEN
Nature of the series: Kinobead competitive pulldown from asexual blood stage parasite lysate, mass spectrometry. The format is biochemical.

Series [4] has as its target T3, glycogen synthase kinase 3 β (PfGSK3β, PF3D7_0312400) (Plasmodium falciparum, UniProt O77344).
T3 sequence (O77344 1-440): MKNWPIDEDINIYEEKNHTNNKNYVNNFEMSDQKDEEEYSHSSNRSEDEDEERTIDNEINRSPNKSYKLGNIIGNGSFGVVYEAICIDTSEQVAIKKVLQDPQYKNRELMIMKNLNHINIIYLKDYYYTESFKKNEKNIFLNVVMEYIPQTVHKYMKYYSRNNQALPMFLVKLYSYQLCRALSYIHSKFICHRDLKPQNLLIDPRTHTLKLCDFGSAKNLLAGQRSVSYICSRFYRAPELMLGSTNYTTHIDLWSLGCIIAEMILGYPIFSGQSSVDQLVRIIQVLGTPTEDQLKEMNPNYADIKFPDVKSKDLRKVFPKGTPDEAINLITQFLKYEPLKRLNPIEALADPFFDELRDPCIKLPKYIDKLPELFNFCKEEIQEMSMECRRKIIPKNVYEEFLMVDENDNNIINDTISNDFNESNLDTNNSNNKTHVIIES
Put plainly: KinaseSeeker competition binding assay with recombinant kinase; also Kinobead competition (IC50 […]). Particulars: read-out: IC50 value ± SEM or SD ^c.

Series [5] concerns the target T4, 3-phosphoinositide-dependent protein kinase 1 (PfPDK1, PF3D7_1121900) (Plasmodium falciparum, UniProt Q8IIE7).
T4 sequence (Q8IIE7 1-525): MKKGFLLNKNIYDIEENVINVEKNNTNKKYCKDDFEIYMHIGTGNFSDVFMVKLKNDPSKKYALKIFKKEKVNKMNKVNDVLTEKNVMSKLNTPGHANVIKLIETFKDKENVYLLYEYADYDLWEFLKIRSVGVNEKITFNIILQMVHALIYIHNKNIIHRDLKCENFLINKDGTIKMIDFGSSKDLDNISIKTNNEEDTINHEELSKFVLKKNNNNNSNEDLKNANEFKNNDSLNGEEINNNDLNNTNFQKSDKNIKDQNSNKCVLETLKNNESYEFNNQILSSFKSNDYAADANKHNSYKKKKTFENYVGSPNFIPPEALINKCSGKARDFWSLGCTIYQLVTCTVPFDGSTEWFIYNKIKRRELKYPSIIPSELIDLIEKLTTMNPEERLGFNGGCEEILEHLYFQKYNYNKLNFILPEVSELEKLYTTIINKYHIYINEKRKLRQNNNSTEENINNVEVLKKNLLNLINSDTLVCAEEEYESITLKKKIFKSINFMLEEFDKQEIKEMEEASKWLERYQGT
Put plainly: Kinobead competitive pulldown from asexual blood stage parasite lysate, mass spectrometry. The format is biochemical.

In series [6] the target is T5, Serine/threonine protein kinase ; PF3D7_0605300 ; C6KSQ1 (Plasmodium falciparum, UniProt C6KSQ1).
T5 sequence (C6KSQ1 1-353): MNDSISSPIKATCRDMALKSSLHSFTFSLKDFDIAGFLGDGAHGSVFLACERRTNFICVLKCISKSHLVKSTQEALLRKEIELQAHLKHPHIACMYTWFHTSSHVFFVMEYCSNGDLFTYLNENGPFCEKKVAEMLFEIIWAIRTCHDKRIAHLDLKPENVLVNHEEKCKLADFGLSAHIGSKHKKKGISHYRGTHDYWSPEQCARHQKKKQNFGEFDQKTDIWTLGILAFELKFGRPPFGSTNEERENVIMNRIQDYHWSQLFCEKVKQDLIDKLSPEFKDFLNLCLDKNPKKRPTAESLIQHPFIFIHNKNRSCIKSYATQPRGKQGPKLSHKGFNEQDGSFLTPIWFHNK
Nature of the series: biochemical. Particulars: Kdapp, apparent Kd, Kinobeads competition. On the set-up: species or system Plasmodium falciparum asexual blood stage lysate; Kinobeads competitive pulldown from asexual blood stage P. falciparum extract, TMT quantitative mass spectrometry, apparent Kd. From the text:
Eluted kinases are quantified in a dose-dependent manner via mass spectrometry. […] Data and error bars represent the mean and SD from two independent experiments. […] Data are plotted as the mean with error bars representing the SEM where N,n = 3,2.

The subject of series [7] is T6, Plasmodium falciparum PfDd2.
T6 construct: Dd2
Put plainly: microbe, parasite or virus in culture. Details: species or system P. falciparum asexual blood stages; asexual blood stage growth inhibition, pLDH read-out. The settings on record: read-out: Mean IC50 ± SEM (µM), pLDH. The procedure: (§1) Parasite growth inhibition was calculated relative to untreated controls, and IC50 values were determined by fitting dose-response curves. Each assay plate included appropriate growth, vehicle, and positive control wells.

In series [8] the test system is T7, Plasmodium falciparum PfCam3.II.
T7 construct: Cam3.II
Put plainly: microbe, parasite or virus in culture. Details: species or system P. falciparum asexual blood stages; asexual blood stage growth inhibition, SYBR Green I read-out. Particulars: read-out: Mean IC50 ± SEM (µM), SYBR Green I. As for the experimental part:
as §1

Series [9] concerns T8, Plasmodium falciparum PfNF54 (WT).
T8 construct: NF54
Put plainly: microbe, parasite or virus in culture. On the set-up: species or system P. falciparum asexual blood stages; asexual blood stage growth inhibition, SYBR Green I read-out. Particulars: read-out: Mean IC50 ± SEM (µM), SYBR Green I. The procedure:
as §1

Series [10] deals with T9, Plasmodium falciparum PfRF7.
T9 construct: RF7
Nature of the series: microbe, parasite or virus in culture. On the set-up: species or system P. falciparum asexual blood stages; asexual blood stage growth inhibition, SYBR Green I read-out. The settings on record: read-out: Mean IC50 ± SEM (µM), SYBR Green I. As for the experimental part: as §1

Series [11] is described as follows: in vitro. On the set-up: HepG2 liver cell cytotoxicity. Particulars: human, hepg2 cells; read-out: Liver cytotoxicity HepG2 IC50. From the text:
(§2) Moderate activity was also observed against immature and late-stage gametocytes, in the low micromolar range, as well as against liver stages, in the submicromolar range (Table and Supplementary Table S3).

The subject of series [12] is T10, Plasmodium berghei Liver-stage PbLuc.
T10 construct: PbLuc (luciferase reporter)
Nature of the series: microbe, parasite or virus in culture. Details: liver-stage Plasmodium berghei luciferase inhibition assay.
Text: as §2

In series [13] the test system is T8, Plasmodium falciparum PfNF54 (WT). Nature of the series: microbe, parasite or virus in culture. On the set-up: species or system P. falciparum asexual blood stages; asexual blood stage growth inhibition, modified [3H]-hypoxanthine incorporation. The settings on record: read-out: PfNF54 control (–Shield-1) IC50 (nM).

T1 sequence (P62344 2-524): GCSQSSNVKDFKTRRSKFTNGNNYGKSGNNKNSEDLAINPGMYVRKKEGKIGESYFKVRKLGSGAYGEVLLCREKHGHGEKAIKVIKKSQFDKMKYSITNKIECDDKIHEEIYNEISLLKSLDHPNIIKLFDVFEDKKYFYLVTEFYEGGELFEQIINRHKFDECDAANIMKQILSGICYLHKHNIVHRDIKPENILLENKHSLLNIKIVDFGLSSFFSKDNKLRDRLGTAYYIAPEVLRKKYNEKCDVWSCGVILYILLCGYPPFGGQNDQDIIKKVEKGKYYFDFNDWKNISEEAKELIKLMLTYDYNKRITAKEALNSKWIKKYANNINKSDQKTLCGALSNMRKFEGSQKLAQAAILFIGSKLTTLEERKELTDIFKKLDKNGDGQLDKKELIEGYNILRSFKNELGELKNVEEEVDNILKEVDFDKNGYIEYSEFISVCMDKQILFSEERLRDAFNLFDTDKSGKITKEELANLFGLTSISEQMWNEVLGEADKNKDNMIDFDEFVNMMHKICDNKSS

For `O=c1[nH]c2ccc(Cl)cc2c(N[C@@H]2CN3CCC2CC3)c1-c1nc2ccccc2[nH]1` [CHIR-124], the Kd turned out to be 0.04 µM in [1]; 0.61 µM in [3]; 0.1 µM in series [5]; 0.18 µM in [6] (Experiment ID=X048537); 0.156 µM in [6] (Experiment ID=X048538). Moreover, the IC50 was determined as 0.38 ± 0.07 µM in [2]; 0.2 ± 0.02 µM in [4]; 0.44 ± 0.05 µM in [7]; 0.016 ± 0.002 µM in [8]; 0.033 ± 0.002 µM in series [9]; 0.01 ± 0.001 µM in [10]. Further, the IC50 came out at 0.31 µM in [12] and 36 ± 7 nM in series [13]. The CC50 in [11] was found to be 4.3 µM.

Values taken from article PMC13386468 (ACS Chemical Biology, 2025).
